In patent US5788964A, “Method for sensitization of cancer cells for killer cell mediated lysis” (Orion-Yhtyma Oy, priority 1996, dated 1998):

What was measured:
P815 tumor cells = experiment: Winn assay, pretreated P815 cells mixed with LAK cells 1:25 (Example 2); assay type: in vivo, DBA/2 mice; settings: target:effector 1:25, s.c., groups of 4
Method: (§1) For the generation of LAK cells, 2×10^6 /ml of spleen cells from female DBA/N2 mice were cultured for 5 days in RPMI-1640 medium supplemented with 10%FCS, 5×10^-5 M 2-mercaptoethanol and 500 U/mI of human recombinant interleukin-2 at 370C in humidified air containing 5% CO2.

P815 mastocytoma = experiment: Immunotherapy of P815 mastocytoma, drug by gavage and LAK cells (Example 6); assay type: in vivo, DBA/2 mice; settings: 10 mg/kg/day by gavage, with or without LAK as labelled
Method: DBA/2 female mice were injected s. c. with 10^4 P815 tumor cells. […] Two days later 25×10^4 LAK cells were given i.p., LAK was injected three times more, four days apart. Drug treatment was maintained from day 14 until day 30.

tumor estrogen receptors = settings: background statement; cited from earlier work
Yac1 murine lymphoma = experiment: NK cell mediated cytotoxicity (51Cr release); settings: for target cell lysis, effector cells pretreated (in words): NK effectors pretreated; for lysis of treated targets by treated effectors (in words) / target cell lysis, target cells treated (in words): NK effectors; for lysis of treated targets by treated effectors (in words): both treated; for target cell lysis, target cells treated (in words): target cells treated for 4 h prior to the cytotoxic reaction
Method: (§2) Target cells were labeled with ^51 Cr for 1 hr, then washed. The specific ^51 Cr release was determined after 4 hours of incubation at 37° C., 5% CO2 (target/effector 1:25).
Target cells: Yac1 murine lymphoma
Effector cells: Spleen lymphocytes of female Fishner rats

[1] = test system: P815 (NK resistant murine mastocytoma); experiment: LAK cell mediated cytotoxicity (51Cr release), rat LAK; settings: for target cell lysis, effector cells pretreated (in words): LAK effectors pretreated; for lysis of treated targets by treated effectors (in words) / target cell lysis, target cells treated (in words): LAK effectors; for lysis of treated targets by treated effectors (in words): both treated; for target cell lysis, target cells treated (in words): target cells treated for 4 h prior to the cytotoxic reaction
Method: Rat spleen cells were used as effector cells either without activation (NK cells), or after treatment with human IL-2 (LAK), or after stimulation with the Nb2 rat lymphoma in mixed cultures (CTL). The Yac-1 murine lymphoma was used as a target for NK cells, the P815 mastocytoma for LAK cells and Nb2 cells for CTL. […] Target cells were labeled with ^51 Cr for 1 hr, then washed. The specific ^51 Cr release was determined after 4 hours of incubation at 37° C., 5% CO2 (target/effector 1:25).
Target cells: P815 (NKresistant murine mastocytoma)
Effectar cells: Spleen cells of Fischer rats were cultured in medium
supplemented with 500 U/ml riL2 for 6 days at 37° C. and 5%

P815 cells = experiment: 51Cr assay, killing of P815 cells by LAK cells from DBA/N2 mice (Example 2); settings: Mus musculus, P815, 4 h, read-out: P815 cells killed by LAK cells
Method: as §1

Nb2 rat lymphoma = experiment: Target cell destruction by cytolytic lymphocytes (CTL) generated in mixed cultures (51Cr release); settings: for target cell lysis, effector cells pretreated (in words): CTL effectors pretreated; for lysis of treated targets by treated effectors (in words) / target cell lysis, target cells treated (in words): CTL effectors; for lysis of treated targets by treated effectors (in words): both treated; for target cell lysis, target cells treated (in words): target cells treated for 4 h prior to the cytotoxic reaction
Method: as §2
Target cells: Nb2 rat lymphoma
Effector cells: Cytotoxic Tlymphocytes (CTL) generated in mixed cultures,
Responder: Spleen cells of Fischer rats. Stimulator: Nb2 cells (thymic

P815 tumor = P815 tumor growth, drug in drinking water with or without LAK (Example 3); assay type: in vivo, mice; settings: drinking water TX 100 μg/ml, TO 400 μg/ml; LAK 1:25 then weekly for 3 weeks

## CC/C(=C(\c1ccccc1)c1ccc(OCCN(C)C)cc1)c1ccccc1 [TX, tamoxifen]
P815 tumor cells
  animals protected / survival: killed all the animals
P815 mastocytoma
  partial regression: one
Tumor estrogen receptors
  inhibition of estrogen-induced growth: inhibit estrogen-induced growth by competitive antagonism of tumor estrogen receptors
Yac1 murine lymphoma
  target cell lysis, effector cells pretreated (in words): no such enhancing effect
  lysis of treated targets by treated effectors (in words): lysed treated targets as efficiently as did nontreated effectors
  target cell lysis, target cells treated (in words): enhanced target cell lysis in a dose dependent fashion
[1]
  target cell lysis, effector cells pretreated (in words): no such enhancing effect
  lysis of treated targets by treated effectors (in words): lysed treated targets as efficiently as did nontreated effectors
  target cell lysis, target cells treated (in words): enhanced target cell lysis in a dose dependent fashion
P815 cells
  cytotoxicity at 1 µM: 52%
Nb2 rat lymphoma
  target cell lysis, effector cells pretreated (in words): no such enhancing effect
  lysis of treated targets by treated effectors (in words): lysed treated targets as efficiently as did nontreated effectors
  target cell lysis, target cells treated (in words): enhanced target cell lysis in a dose dependent fashion

## CN(C)CCOc1ccc(/C(=C(/CCCl)c2ccccc2)c2ccccc2)cc1 [TO, toremifene]
P815 tumor cells
  animals protected / survival: 1 of 4
P815 tumor
  tumor free animals: one
P815 mastocytoma
  partial regression: one
Yac1 murine lymphoma
  target cell lysis, effector cells pretreated (in words): no such enhancing effect
  lysis of treated targets by treated effectors (in words): lysed treated targets as efficiently as did nontreated effectors
  target cell lysis, target cells treated (in words): enhanced target cell lysis in a dose dependent fashion
[1]
  target cell lysis, effector cells pretreated (in words): no such enhancing effect
  lysis of treated targets by treated effectors (in words): lysed treated targets as efficiently as did nontreated effectors
  target cell lysis, target cells treated (in words): enhanced target cell lysis in a dose dependent fashion
P815 cells
  cytotoxicity at 5 µM: 51%
Nb2 rat lymphoma
  target cell lysis, effector cells pretreated (in words): no such enhancing effect
  lysis of treated targets by treated effectors (in words): lysed treated targets as efficiently as did nontreated effectors
  target cell lysis, target cells treated (in words): enhanced target cell lysis in a dose dependent fashion
